Measured values as given in patent US5753518A, “Method of determining affinity and kinetic properties” (Pharmacia AB, priority 1993, dated 1998).

Legend:
Type in all cases: binding, mouse
[1] = system: monoclonal anti-p24 antibody (Mab 7); test: Competitive kinetics: synthetic p24 derived peptides mixed with p24 over captured anti-p24 Mab (BIAcore SPR); details: for affinity for the antibody (qualitative): p24 at 60 nM and the peptides at 44 μM, FIG. 4
Description: With the above prepared sensor surface docked into the BIAcore™ instrument, a solution of purified monoclonal anti-p24 antibody (Pharmacia Diagnostics AB, Uppsala, Sweden), hereinafter referred to as Mab 7, was injected, the anti-p24 monoclonal antibody thereby being captured by the immobilized RAMFc. Different solutions of HIV core protein p24 (Pharmacia Genetic Engineering, San Diego, USA), varying in concentration from 18.75 to 300 nM, were then injected and the binding curves, relative response in resonance units (RU) versus time in seconds, were recorded (1 RU corresponds to a mass change, caused by the binding of a protein, on the sensor surface of about 1 pg/mm^2; Stenberg, E., et al., J. Colloid and Interface Sci. 143 (1991) 513-526).
100 μl volumes of a 60 nM solution of p24 in HBS were mixed with 100 μl of different concentrations (5 nM to 1 mM) of two synthetic p24 derived peptides corresponding to (i) the regions 329-352 (peptide 7): […] (Mw =2494), and (ii) the regions 332-349 (peptide 5): […] (Mw =1841) (obtained from Dr Ake Engstrom, Department of Immunology, Biomedical Center, University of Uppsala, Sweden). The peptide sequences are according to Ratner et al., Nature 313, 227-284, 1985 and are numbered according to Myers G. et al., Database Human Retroviruses and AIDS, Los Alamos National Laboratory, Los Alamos, U.S.A., 1988. Each mixture was injected at 10 μl/min for two minutes over the sensor surface with captured anti-p24 antibody and the respective binding curves for each peptide were recorded. Peptide 5 was used at the concentrations: 0, 4.91, 14.75, 44.26, 132.78, 398.33, and 1195.00 μM; and peptide 7 at the concentrations 0, 0.005, 0.016, 0.049, 0.147, 0.441, and 1.323 μM.
The binding curves for peptide 5 are shown in overlay plot in FIG. 2, and a corresponding overlay plot of the binding curves for peptide 7 is shown in FIG. 3. […] Evidently, these two peptides have quite different affinities for the immobilized antibody.

[2] = system: monoclonal anti-theophylline antibody; test: Competitive kinetics: theophylline derivatives mixed with aminotheophylline-conalbumin conjugate over captured anti-theophylline Mab (BIAcore SPR); details: 500 nM ligand solution mixed with 620 nM conjugate solution; 10 μl/min for 90 seconds; FIG. 5
Description: (§1) A continuous flow of HBS (10 mM Hepes with 0.15M NaCl, 3.4 mM EDTA and 0.05% surfactant P20 at pH 7.4) was maintained over a BIAcore™ sensor chip CM5 (a gold-plated glass slide supporting a carboxymethyldextran layer via a monolayer of long-chain hydrocarbons; supplied by Pharmacia Biosensor AB, Uppsala, Sweden). The carboxylated matrix on the sensor surface was activated by a three-minute injection of a solution containing 0.2M N-ethyl-N'-(3-diethylaminopropyl)carbodiimide (EDC) and 0.05M N-hydroxysuccinimide (NHS). 100 μg/ml of rabbit anti-mouse Fc (RAMFc) antibodies (Pharmacia Biosensor AB, Uppsala, Sweden) in 10 mM acetate buffer, pH 4.75, were then injected followed by a pulse of ethanolamine-hydrochloride, pH 8.5, to block remaining NHS-ester groups.
Different solutions of the above prepared conalbumin conjugate varying in concentration from 100 to 1000 nM, were then injected and the binding curves were recorded.

[3] = system: monoclonal anti-histamine antibody; test: Competitive kinetics: histamine and methylhistamine mixed with histamine-conalbumin conjugate over captured anti-histamine Mab (BIAcore SPR); details: 220 nM ligand solution mixed with 80 nM conjugate solution; 10 μl/min for 8 minutes; FIG. 6
Description: as §1
Different solutions of the above prepared conalbumin conjugate, varying in concentration from 100 to 1000 nM, were then injected and the binding curves were recorded. […] For the following competitive experiment, a concentration of 80 nM was chosen.

TILKALGPAATLEEMMTA [peptide 5, synthetic p24 derived peptide, regions 332-349]
peptide concentration at which competition is evident ([1]; mixed with 60 nM p24 solution, 10 μl/min for two minutes, FIG. 2): evident only at μM concentrations | affinity for the antibody (qualitative) [1]: low affinity

Cn1c(=O)c2c(ncn2CC(=O)O)n(C)c1=O [acetic acid derivative of theophylline, 7-theophylline acetic acid]
affinity for the antibody (relative ranking) [2]: much lower affinity

aminotheophylline
affinity for the antibody (relative ranking) [2]: highest affinity

DCKTILKALGPAATLEEMMTACQG [peptide 7, synthetic p24 derived peptide, regions 329-352]
peptide concentration at which competing kinetics is seen ([1]; mixed with 60 nM p24 solution, 10 μl/min for two minutes, FIG. 3): 5 nM | affinity for the antibody (qualitative) [1]: high affinity

NCCc1c[nH]cn1 [histamine]
affinity for the antibody (relative ranking) [3]: methylhistamine has a higher affinity for the antibody than histamine itself

methylhistamine
affinity for the antibody (relative ranking) [3]: higher affinity
